Twelve molecules from PubChem BioAssay (NCI) can be followed below.

The structures appear in SMILES notation. Several values for one entry are separate records, joined by “and”; a condition that tells them apart may be missing. Identical values can stand only once.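 Briefly, cells in 96-well plates were exposed to five compound concentrations for 48 h, and endpoints were estimated by linear interpolation. GI50 marks 50% less growth. TGI: concentration producing complete growth inhibition.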

Some test systems named below: LOX IMVI melanoma; UACC-257 melanoma; NCI-H522 lung; 786-0 renal; PC-3 prostate; CAKI-1 renal; M14 melanoma; SK-MEL-28 melanoma; SF-268 CNS; NCI/ADR-RES ovarian.
Holding throughout (assay): NCI tumour cell line growth inhibition, 48 h

In the case of `CCN(CC)c1sc(N(CC)CC)c2c1SSSSS2`, the GI50 with LOX IMVI melanoma is 1.01 µM; with UACC-257 melanoma, 1.79 µM; in the assay on NCI-H522 lung, 0.416 µM; in the assay with 786-0 renal, 1.2 µM; in the assay with PC-3 prostate, 2.05 µM; in the assay with CAKI-1 renal, 1.49 µM. In addition, the GI50 is 1.45 µM with M14 melanoma, 1.55 µM in the assay with SK-MEL-28 melanoma, 1.96 µM in the assay on SF-268 CNS and 0.89 µM in the assay with NCI/ADR-RES ovarian. The TGI was determined as 3.31 µM in the assay on LOX IMVI melanoma; 4.08 µM with UACC-257 melanoma; 3.09 µM in the assay with 786-0 renal; 4.26 µM in the assay on PC-3 prostate; 3.78 µM in the assay with CAKI-1 renal; 3.23 µM with M14 melanoma. Moreover, the TGI amounted to 3.92 µM in the assay on SK-MEL-28 melanoma, 4.53 µM in the assay on SF-268 CNS and 2.53 µM with NCI/ADR-RES ovarian.
`CC(=O)OC1CC(O)C23COC(O)C1(C)C2CC(O)C1(C)C3C(=O)C(O)C2(C)C(c3ccoc3)CC3OC321` (stereo not drawn): the GI50 in the assay on LOX IMVI melanoma was under 0.01 µM; in the assay with UACC-257 melanoma it was 0.16 µM; with NCI-H522 lung, 0.401 µM; in the assay with 786-0 renal it was 0.0897 µM; in the assay with PC-3 prostate, 0.0114 µM; with CAKI-1 renal, 2.97 µM. Moreover, the GI50 is 0.0793 µM in the assay on M14 melanoma, over 100 µM with SK-MEL-28 melanoma, 2.2 µM with SF-268 CNS and 71.9 µM with NCI/ADR-RES ovarian. The TGI in the assay with LOX IMVI melanoma is 12.5 µM; in the assay on UACC-257 melanoma it was 5.51 µM; in the assay with NCI-H522 lung, over 100 µM; in the assay on 786-0 renal, over 64.2 µM; in the assay with PC-3 prostate it was over 100 µM; in the assay on CAKI-1 renal, over 100 µM. For the same molecule, the TGI is over 59.8 µM with M14 melanoma, over 100 µM in the assay with SK-MEL-28 melanoma, over 100 µM in the assay with SF-268 CNS and over 100 µM in the assay with NCI/ADR-RES ovarian.
With `CN(C)c1ccc(N)cc1`, the GI50 in the assay on LOX IMVI melanoma was 3.94 µM; in the assay with UACC-257 melanoma, 2.69 µM; in the assay with NCI-H522 lung, 1.94 µM; in the assay with 786-0 renal, 8.38 µM; in the assay with PC-3 prostate it was 3.53 µM; in the assay with CAKI-1 renal it was 5.6 µM. The GI50 with M14 melanoma was 4.66 µM; in the assay on SK-MEL-28 melanoma it was 7.81 µM; in the assay on SF-268 CNS, 6.96 µM; in the assay on NCI/ADR-RES ovarian, 12.6 µM. Moreover, the TGI with LOX IMVI melanoma was 14.7 µM; in the assay with UACC-257 melanoma, 7.28 µM; in the assay on NCI-H522 lung, 7.84 µM; with 786-0 renal, 97.5 µM; in the assay on PC-3 prostate, 21.8 µM; in the assay with CAKI-1 renal, 30.9 µM. Also, the TGI worked out at 16.3 µM in the assay with M14 melanoma, 22.3 µM in the assay with SK-MEL-28 melanoma, 32.7 µM with SF-268 CNS and 48 µM in the assay with NCI/ADR-RES ovarian.
On to `CCN(CC)CCCC(C)Nc1c(C)cnc2cc(Cl)c(C)cc12` (stereo not drawn), for which the GI50 in the assay on LOX IMVI melanoma is 2.17 µM; with UACC-257 melanoma it was 18.2 µM; in the assay with NCI-H522 lung it was 23 µM; in the assay on 786-0 renal, 10.8 µM; with PC-3 prostate, 9.69 µM; with CAKI-1 renal it was 10 µM. The GI50 in the assay with M14 melanoma is 1.76 µM; in the assay with SK-MEL-28 melanoma, 2.49 µM; in the assay on SF-268 CNS, 15.3 µM; in the assay with NCI/ADR-RES ovarian it was 3.43 µM. In addition, the TGI is 10.7 µM in the assay with LOX IMVI melanoma; 34.4 µM with UACC-257 melanoma; 53.1 µM with NCI-H522 lung; 23 µM in the assay with 786-0 renal; 26.4 µM in the assay on PC-3 prostate; 26.6 µM in the assay with CAKI-1 renal. Further, the TGI was 3.19 µM in the assay with M14 melanoma, 8.99 µM in the assay on SK-MEL-28 melanoma, 33.3 µM in the assay on SF-268 CNS and 10.7 µM in the assay on NCI/ADR-RES ovarian.
For the molecule `CN/N=C(/CCN1CCCC1)CC(c1ccccc1)c1c(O)c2ccccc2oc1=O` (stereo not drawn), the TGI with LOX IMVI melanoma, in the assay with UACC-257 melanoma, in the assay on NCI-H522 lung, with 786-0 renal, with PC-3 prostate and in the assay with CAKI-1 renal was over 100 µM throughout. Further, the TGI in the assay with M14 melanoma, in the assay on SK-MEL-28 melanoma, with SF-268 CNS and in the assay with NCI/ADR-RES ovarian was over 100 µM throughout.
For `COc1cc(C2=NN(C(C)=O)C(c3ccc(OC(C)=O)cc3OC(C)=O)O2)c(OC(C)=O)c2ccccc12` (stereo not drawn), the GI50 in the assay with LOX IMVI melanoma was 0.374 µM; with UACC-257 melanoma, 0.981 µM; with NCI-H522 lung, 1.19 µM; in the assay with 786-0 renal it was 0.902 µM; with PC-3 prostate it was 0.753 µM; in the assay on CAKI-1 renal it was 0.465 µM. Moreover, the GI50 was 0.582 µM in the assay on M14 melanoma, 1.27 µM in the assay with SK-MEL-28 melanoma, 0.465 µM in the assay with SF-268 CNS and 0.542 µM with NCI/ADR-RES ovarian. Further, the TGI in the assay with LOX IMVI melanoma was 11.7 µM; with UACC-257 melanoma, 6.86 µM; in the assay with NCI-H522 lung, 11 µM; with 786-0 renal, 12.7 µM; in the assay on PC-3 prostate, 35.4 µM; in the assay with CAKI-1 renal it was over 21.1 µM. The TGI in the assay with M14 melanoma was 7.15 µM; in the assay on SK-MEL-28 melanoma, 23.2 µM; in the assay on SF-268 CNS, over 24.4 µM; with NCI/ADR-RES ovarian, over 51.8 µM.
Take `O=C(Nc1ccc(Cl)cc1)c1cc(-c2ccc(F)cc2)c2sc(=O)[nH]c2n1`: the GI50 with LOX IMVI melanoma was 1.68 µM; in the assay on UACC-257 melanoma it was 1.11 µM; in the assay with NCI-H522 lung, 0.478 µM; in the assay on 786-0 renal, 1.35 µM; with PC-3 prostate, 0.65 µM; in the assay with CAKI-1 renal, 2.15 µM. The GI50 in the assay on M14 melanoma was 1.88 µM; in the assay with SK-MEL-28 melanoma, 1.39 µM; with SF-268 CNS, 2.59 µM; in the assay on NCI/ADR-RES ovarian it was 2.32 µM. In addition, the TGI in the assay with LOX IMVI melanoma came to 4.43 µM; in the assay with UACC-257 melanoma, 5.07 µM; in the assay on NCI-H522 lung, 5.42 µM; in the assay with 786-0 renal, 2.85 µM; in the assay with PC-3 prostate it was 13.3 µM; in the assay with CAKI-1 renal, 4.99 µM. The TGI in the assay on M14 melanoma came out at 5.13 µM; in the assay on SK-MEL-28 melanoma, 10.1 µM; with SF-268 CNS it was 17.2 µM; in the assay with NCI/ADR-RES ovarian, 10.9 µM.
Turning to `CC1CN1CC(O)C(O)CN1CC1C` (stereo not drawn), the GI50 was 0.814 µM with LOX IMVI melanoma; 3.12 µM with UACC-257 melanoma; 1.72 µM in the assay with NCI-H522 lung; 0.831 µM with 786-0 renal; 12.5 µM in the assay with PC-3 prostate; 0.229 µM in the assay on CAKI-1 renal. For the same molecule, the GI50 in the assay with M14 melanoma was 2.16 µM; with SK-MEL-28 melanoma, 17.5 µM; with SF-268 CNS it was 0.716 µM; in the assay on NCI/ADR-RES ovarian it was 1.24 µM. In addition, the TGI in the assay with LOX IMVI melanoma was 11.4 µM; with UACC-257 melanoma, 23.3 µM; with NCI-H522 lung it was 7.08 µM; in the assay on 786-0 renal it was over 41.2 µM; with PC-3 prostate, over 78.4 µM; with CAKI-1 renal, 4.54 µM. Further, the TGI was 28.7 µM in the assay on M14 melanoma, 97.4 µM in the assay on SK-MEL-28 melanoma, over 53.5 µM with SF-268 CNS and over 87.1 µM in the assay on NCI/ADR-RES ovarian.
In the case of `COc1cc(NC(=O)c2cc(O)c(CC=C(C)C)c(O)c2)cc2c1O[C@]1(C)CC[C@@H](O)C(C)(C)[C@H]1C2`, the GI50 in the assay with LOX IMVI melanoma is 3.07 µM; in the assay with UACC-257 melanoma, 3.37 µM; with NCI-H522 lung it was 3.42 µM; in the assay with 786-0 renal, 0.567 µM; in the assay with PC-3 prostate, 3.03 µM; with CAKI-1 renal, 3.17 µM. The GI50 with M14 melanoma is 2.94 µM; in the assay with SK-MEL-28 melanoma it was 2.31 µM; in the assay with SF-268 CNS, 4.65 µM; in the assay with NCI/ADR-RES ovarian it was 37 µM. For the same molecule, the TGI in the assay on LOX IMVI melanoma was 19.1 µM; with UACC-257 melanoma, 15.7 µM; with NCI-H522 lung, 12.3 µM; in the assay on 786-0 renal it was 7.24 µM; with PC-3 prostate it was 35.1 µM; in the assay with CAKI-1 renal, over 100 µM. For the same molecule, the TGI was 13.5 µM in the assay with M14 melanoma, 16.8 µM with SK-MEL-28 melanoma, 72.6 µM with SF-268 CNS and over 100 µM in the assay with NCI/ADR-RES ovarian.
Consider `COc1ccc(C(C)c2cc3c(cc2OC)OCO3)cc1` (stereo not drawn), for which the TGI was 27.3 µM in the assay with LOX IMVI melanoma; over 75.5 µM with UACC-257 melanoma; 0.438 µM in the assay with NCI-H522 lung; over 53.4 µM in the assay with 786-0 renal; over 100 µM in the assay on PC-3 prostate; over 100 µM in the assay on CAKI-1 renal. Further, the TGI in the assay with M14 melanoma is 24.5 µM; in the assay with SK-MEL-28 melanoma it was over 100 µM; in the assay on SF-268 CNS, over 56.2 µM; in the assay on NCI/ADR-RES ovarian, 28.2 µM.
Take `CC(=O)OC1Oc2ccccc2-c2oc(=O)c(-c3cc4ccc(N(C)C)cc4oc3=O)cc21` (stereo not drawn): the GI50 with LOX IMVI melanoma was 10.4 µM; with UACC-257 melanoma it was 10.2 µM; with NCI-H522 lung it was 11.9 µM; in the assay with 786-0 renal it was 15.7 µM; in the assay on PC-3 prostate, 10.5 µM; with CAKI-1 renal, 14.9 µM. The GI50 in the assay on M14 melanoma is 17.9 µM; in the assay with SK-MEL-28 melanoma it was 19.9 µM; in the assay on SF-268 CNS it was 10.6 µM; in the assay on NCI/ADR-RES ovarian it was 6.11 µM. Besides, the TGI is 23 µM in the assay on LOX IMVI melanoma; 43.3 µM in the assay on UACC-257 melanoma; 30.6 µM with NCI-H522 lung; 39.3 µM with 786-0 renal; 32.6 µM in the assay with PC-3 prostate; over 100 µM in the assay on CAKI-1 renal. The TGI was found to be 66.1 µM with M14 melanoma, 56.4 µM in the assay on SK-MEL-28 melanoma, 32.2 µM in the assay on SF-268 CNS and 34.7 µM in the assay on NCI/ADR-RES ovarian.
Turning to `CCC1(O)C(=O)OCc2c1cc1n(c2=O)Cc2cc3ccc(C=O)cc3nc2-1` (stereo not drawn), the GI50 in the assay on LOX IMVI melanoma was 0.403 µM; in the assay on UACC-257 melanoma it was 7.73 µM; with NCI-H522 lung, 6.8 µM and 2.9 µM; with 786-0 renal, 0.45 µM; in the assay with CAKI-1 renal, 1.99 µM; with M14 melanoma, 1.44 µM. Moreover, the GI50 in the assay on SK-MEL-28 melanoma was 11.2 µM; with SF-268 CNS, 0.376 µM; with NCI/ADR-RES ovarian it was 1.33 µM. The TGI with LOX IMVI melanoma was 7.8 µM and 5.58 µM; in the assay on UACC-257 melanoma, 23.7 µM and 43.7 µM; in the assay on NCI-H522 lung it was 15.4 µM and 13.8 µM; in the assay with 786-0 renal, 9.18 µM and 4.95 µM; in the assay with PC-3 prostate it was 50 µM and > 100 µM; in the assay with CAKI-1 renal it was 19.2 µM and 8.81 µM. In addition, the TGI with M14 melanoma was 50 µM and 19.2 µM; in the assay on SK-MEL-28 melanoma it was 50 µM and > 100 µM; with SF-268 CNS, 50 µM and 40 µM; in the assay with NCI/ADR-RES ovarian, 6.73 µM and 12.6 µM.
